Measurements taken from US5840895A, “Triazole intermediates for tricyclic benzazepine and benzothiazepine derivatives” (Meiji Seika Kabushiki Kaisha, priority 1993, dated 1998).
Where two headings read alike, the source gives them in different places.

Columns and labels:
[1] = cited from earlier work
[2] = test system: allergic edema reaction at paw; test: Test for suppressing immediate and delayed allergic reaction (allergic edema reaction at paw, DNP-OA); format: in vivo, rat (male Wister); details: Rattus norvegicus; for inhibition in vivo at 10 mg/kg / inhibition in vivo at 30 mg/kg: oral; for inhibition in vivo at 30 mg/kg: dose: 30 mg/kg of body weight
Method: Test for suppressing immediate and delayed allergic reaction
1×10^10 of inviable pertussis and 1 mg of dinitrophenylated ovalbumin (DNP-OA) were administered subcutaneously to the three paws except the right hind paw of male Wister rats having a body weight of 200 g. After 10 days, 5 μg of DNP-OA was further administered subcutaneously to the right hind paw of the animals to induce the allergic edema reaction at paw. The allergy suppressing effect of the test compounds was examined with reference to the edema volumes after 30 minutes and 8 hours of the induction of the allergic reaction as the immediate and delayed allergic reactions, respectively.
[…] On the other hand, only a solution of 0.25% Tween 80 was orally administered to rats as the untreated control, and 100 mg/kg of sodium chromoglycate subcutaneously or orally to rats as the positive control.
The rate of suppressing the allergic edema reaction at paw was calculated from the following equation.
Suppression rate of the allergic edema reaction at paw
A is an average edema volume in the control, and
B is an average edema volume in the drug treated group.

[3] = test system: histamine releasing reaction; test: Test of suppressing histamine releasing reaction (abdominal cavity cells of rats sensitised with anti-DNP-As serum, stimulated with DNP-As); format: cell-based, rat (male Wister); details: Rattus norvegicus; cells 10^5 cell/ml stimulated with 1 μg/ml DNP-As; test compounds 10^-5 -10^-10 M; read-out: IC50 (suppression of histamine releasing reaction)
Method: Test of suppressing histamine releasing reaction
Rat anti-dinitrophenylated ascaris protein (referred to hereinafter as DNP-As) serum was prepared according to the method described by Tada, T. and Okumura, K., J. Immun., 106 (4), 1971. Briefly, 1×10^10 of inviable pertussis and 1 mg of DNP-As were administered subcutaneously to the paw of female Brown Norway rats having a body weight of 200 g. After five days, 0.5 mg of DNP-As was further administered intramuscularly to the rear of the animals. Blood samples were taken after three days of the administration to prepare anti-serum.
A 1 ml portion of the serum diluted four times with physiological saline was administered intraperitoneally to male Wister rats. After two days, abdominal cavity was rinsed with phosphate buffer to recover the cells within the abdominal cavity. After the cell concentration was adjusted to 10^5 cell/ml, the cells were stimulated with 1 μg/ml of DNP-As. The amount of histamine released into the supernatant was measured according to the method described by Shore, P. A., Burkhalter, A. H. and Chon, V. H. Jr., J. Pharm. Exp. Ther., 127, 182-186 (1959).
A dose for suppressing 50% of the histamine releasing reaction, i.e., IC50 value, was calculated from the amounts of histamine released in the group treated with the test compounds in the molar concentrations (M) of 10^-5 -10^-10 and in the control group. The IC50 value as the suppressing effect of the drugs is shown in Table 6 with the IC50 value of sodium chromoglycic acid selected as the control compound.

[4] = 0.5 h, edema volume 30 minutes after induction, read-out: Suppressing Rate, Immediate Reaction
[5] = edema volume 8 hours after induction, read-out: Suppressing Rate, Slow reaction
[6] = 0.5 h, 30 minutes after induction, read-out: Suppressing Rate, Immediate Reaction
[7] = 8 hours after induction, read-out: Suppressing Rate, Slow reaction

Compound	IC50 [3] [nM]	inhibition in vivo at 10 mg/kg [2, 4] [%]	inhibition in vivo at 10 mg/kg [2, 5] [%]	inhibition in vivo at 30 mg/kg [2, 6] [%]	inhibition in vivo at 30 mg/kg [2, 7] [%]	also measured
O=C(O)c1cc(=O)c2c(OCC(O)COc3cccc4oc(C(=O)O)cc(=O)c34)cccc2o1 [DSCG, sodium chromoglycate, reference compound]	–	–	–	–	–	effectiveness on oral administration [1]: no effectiveness; inhibition in vivo at 100 mg/kg ([2]; po, 0.5 h, orally, 30 minutes after induction (positive control), read-out: Suppressing Rate, Immediate Reaction): 16%; inhibition in vivo at 100 mg/kg ([2]; po, orally, 8 hours after induction (positive control), read-out: Suppressing Rate, Slow reaction): 20%; inhibition in vivo at 100 mg/kg ([2]; sc, 0.5 h, subcutaneously, 30 minutes after induction (positive control), read-out: Suppressing Rate, Immediate Reaction): 75%; inhibition in vivo at 100 mg/kg ([2]; sc, subcutaneously, 8 hours after induction (positive control), read-out: Suppressing Rate, Slow reaction): 53%
COc1ccc(C(=O)COc2ccc3[nH]c(=O)c4nn[nH]c4c(=O)c3c2)cc1 [Example 84, 8-(4-methoxyphenacyloxy)-4(5H),10-dioxo-1H-1,2,3-triazolo[4,5-c][l]benzazepine]	3.9	48	40	–	–	–
COC(=O)/C=C/c1ccc2c(=O)c3[nH]nnc3c(=O)[nH]c2c1 [Example 16, 7-(2-methoxycarbonyl-(E)-ethenyl)-4(5H),10-dioxo-1H-1,2,3-triazolo[4,5-c][l]benzazepine]	2.6	79	80	–	–	–
Cc1ccc2c(=O)c3[nH]nnc3c(=O)[nH]c2c1 [Example 4, 7-methyl-4(5H),10-dioxo-1H-1,2,3-triazolo[4,5-c][l]benzazepine]	2.3	–	–	70.5	57.7	–
Cc1cccc2c(=O)c3[nH]nnc3c(=O)[nH]c12 [Example 3, 6-methyl-4(5H),10-dioxo-1H-1,2,3-triazolo[4,5-c][l]benzazepine]	37	–	–	46.6	24.2	–
